# Laboratory results: patent US4870085A, “Tryptamine derivatives active on central nervous system” (Bayer Aktiengesellschaft, priority 1984, dated 1989)
# Where a name gives a salt, the structure may show the parent alone.
# Target: 5-HT1 receptor
# Assay: Interaction with serotonin receptors: 5-HT1 receptor, calf hippocampus, ligand 3H-serotonin
# Assay type: binding
# Conditions: ligand 3H-serotonin (Table 2), read-out: K1
# Description: (§1) Interaction with serotonin receptors
# (§2) Inhibition constant K1 (nmol l^-1)
# Ligand: ^3 H--serotonin
# In generally similar manner there were prepared additional compounds which, when tested against 5-HT, receptors as in Example 7, gave the results shown in Table 2.
row,SMILES,Ki
1,C[C@H]1CCC[C@H](C)N1CCc1c[nH]c2ccc(OCc3ccccc3)cc12 (relative stereo) [compound 15],500 nM
2,C[C@H]1CCC[C@H](C)N1CCc1c[nH]c2ccc(O)cc12 (relative stereo) [compound 17],25 nM
3,COc1ccc2[nH]cc(CCN3[C@@H](C)CCC[C@@H]3C)c2c1 (relative stereo) [compound 20],450 nM
4,COc1ccc2[nH]cc(CCN3[C@@H](C)CCC[C@@H]3C)c2c1 (relative stereo) [compound 22],45 nM
5,C[C@H]1CCC[C@H](C)N1CCc1c[nH]c2ccccc12 (relative stereo) [compound 29],3000 nM
6,COc1ccc2[nH]cc(CCN3[C@H](C)CCC[C@@H]3C)c2c1 [compound 9],13 nM
7,COc1ccc2[nH]cc(CCN3[C@H](C)CCC[C@@H]3C)c2c1 [compound 10],10 nM
8,C[C@@H]1CCC[C@H](C)N1CCc1c[nH]c2ccc(OCc3ccccc3)cc12 [compound 11],200 nM
9,C[C@@H]1CCC[C@H](C)N1CCc1c[nH]c2ccc(O)cc12 [compound 12],15 nM
10,C[C@@H]1CCC[C@H](C)N1CCc1cn(C(N)=O)c2ccccc12 [compound 13],1800 nM
11,C[C@@H]1CCC[C@H](C)N1CCc1c[nH]c2ccc(OCc3ccccc3)cc12 [compound 14],800 nM
12,C[C@@H]1CCC[C@H](C)N1CCc1c[nH]c2ccc(O)cc12 [compound 16],4 nM
13,C[C@@H]1CCC[C@H](C)N1CCc1c[nH]c2ccc(Br)cc12 [compound 18],30 nM
14,C[C@@H]1CCC[C@H](C)N1CCc1c[nH]c2ccccc12 [compound 19],800 nM
15,COc1ccc2[nH]cc(CCN3[C@H](C)CCC[C@@H]3C)c2c1 [compound 21],70 nM
16,C[C@@H]1CCC[C@H](C)N1CCc1c[nH]c2ccc(Cl)cc12 [compound 23],60 nM
17,C[C@@H]1CCC[C@H](C)N1CCc1c[nH]c2ccc(F)cc12 [compound 24],170 nM
18,CC1CCCCN1CCc1c[nH]c2ccccc12 (centres unmarked) [compound 25],170 nM
19,CC1CC(C)N(CCc2c[nH]c3ccccc23)C(C)C1 (centres unmarked) [compound 26],920 nM
20,Cc1ccc2[nH]cc(CCN3[C@H](C)CCC[C@@H]3C)c2c1 [compound 27],40 nM
21,C[C@@H]1CCC[C@H](C)N1CCc1c[nH]c2ccc(C#N)cc12 [compound 28],240 nM
22,C[C@@H]1CCC[C@H](C)N1CCc1cn(C(=O)OC(C)(C)C)c2ccccc12 [compound 30],1800 nM
23,Cc1ccc(S(=O)(=O)n2cc(CCN3[C@H](C)CCC[C@@H]3C)c3cc(Br)ccc32)cc1 [compound 31],3200 nM
24,C[C@@H]1CCC[C@H](C)N1CCc1c[nH]c2ccc(-n3cc(CCN4[C@H](C)CCC[C@@H]4C)c4cc(Br)ccc43)cc12 [compound 32],680 nM
25,C[C@@H]1CCC[C@H](C)N1CCc1cn(C)c2ccc(Br)cc12 [compound 34],1100 nM
26,C[C@@H]1CCC[C@H](C)N1CCc1c[nH]c2ccc(CN)cc12 [compound 35],500 nM
27,C[C@@H]1CCC[C@H](C)N1CCc1cn(C(=O)c2ccccc2)c2ccc(Br)cc12 [compound 36],1000 nM
28,C[C@@H]1CCC[C@H](C)N1CCc1c[nH]c2ccc(C(N)=O)cc12 [compound 37],7 nM
29,CC1CC(C)N(CCc2c[nH]c3ccc(Cl)cc23)C(C)C1 (centres unmarked) [compound 38],660 nM
30,CC1(C)CCCC(C)(C)N1CCc1c[nH]c2ccccc12 [compound 39],> 10000 nM

# Target: T1, 5-HT2 receptor (Rattus norvegicus, UniProt P14842)
# T1 construct: rat prefrontal cortex; from tissue; host or cells: rat prefrontal cortex
# Assay: Interaction with serotonin receptors: 5-HT2 receptor, rat prefrontal cortex, ligand 3H-ketanserin
# Assay type: binding
# Conditions: not given
# From the text: as §1, §2
# 5-HT2 receptor Contraction of the
# Ligand: ^3 H--ketanserin
# T1 sequence (P14842 whole entry): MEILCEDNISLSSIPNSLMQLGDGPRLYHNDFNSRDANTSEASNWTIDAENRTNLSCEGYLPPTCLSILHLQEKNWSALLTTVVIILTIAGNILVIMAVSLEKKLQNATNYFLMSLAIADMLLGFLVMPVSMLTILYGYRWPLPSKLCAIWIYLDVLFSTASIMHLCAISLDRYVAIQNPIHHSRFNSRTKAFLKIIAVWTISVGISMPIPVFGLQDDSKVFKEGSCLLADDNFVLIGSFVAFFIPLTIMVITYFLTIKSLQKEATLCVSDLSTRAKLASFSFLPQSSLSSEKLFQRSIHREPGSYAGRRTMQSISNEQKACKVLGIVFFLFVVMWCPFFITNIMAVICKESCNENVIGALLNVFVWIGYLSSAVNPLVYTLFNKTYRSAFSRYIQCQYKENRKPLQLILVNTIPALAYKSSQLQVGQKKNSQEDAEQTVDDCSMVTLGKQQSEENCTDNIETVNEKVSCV
row,SMILES,Ki
1,"C[C@@H]1CCC[C@H](C)N1CCc1c[nH]c2ccccc12 [Example 2, 3-[2-(Cis-2,6-dimethylpiperidinyl)ethyl]indole hydrochloride]",2500 nM
2,"C[C@@H]1CCC[C@H](C)N1CCc1c[nH]c2ccc(Br)cc12 [Example 3, 3-[2-(Cis-2,6-dimethylpiperidinyl)ethyl]-5-bromoindole hydrochloride]",1300 nM
